Structures can show the parent of a compound that is named as a salt.
Key:
L6-myotubes [1] = assay: Glucose uptake in differentiated L6-myotubes (3H-2-deoxyglucose), compared to isoproterenol; format: cell-based; conditions: agonist 1×10^−5 M, 50 nM 3H-2-deoxyglucose; for Emax at 10 µM: read-out: Biological example 1: glucose uptake, activity compared to that of isoproterenol
Procedure: (§1) L6-myoblasts were grown in Dulbecco's Modified Eagle's Medium (DMEM) containing 1 g/L glucose supplemented with 10% fetal bovine serum, 2 mM L-Glutamine, 50 U/mL penicillin, 50 μg/mL streptomycin and 10 mM HEPES. Cells were plated at 1×10^5 cells per mL in 24-well plates. After reaching 90% confluence the cells were grown in medium containing 2% FBS for 7 days where upon cells differentiated into myotubes.
Differentiated L6-myotubes were serum-starved overnight in medium containing 0.5% fatty-acid free BSA and stimulated with an agonist, with a final concentration of 1×10^−5 M. After 1 h 40 min the cells were washed with warm glucose free medium or PBS twice and another portion of agonist was added to the glucose free medium. After 20 min the cells were exposed to 50 nM ^3H-2-deoxyglucose for 10 min before washed with ice cold glucose free medium or PBS three times and lysed with 0.2 M NaOH, 400 μL/well, for 1 h at 60° C. The cell lysate was mixed with 4 mL scintillation buffer (Emulsifier Safe, Perkin Elmer) and the radioactivity was detected in a β-counter (Tri-Carb 4810TR, Perkin Elmer). The activity for each compound is compared to that of isoproterenol.

L6-myotubes [2] = assay: Measurement of intracellular cAMP levels in differentiated L6 cells (alpha screen cAMP kit), compared to isoproterenol; format: cell-based; conditions: agonist 1×10^−5 M, 15 min; for Emax at 10 µM: Rattus norvegicus, L6, 0.25 h, read-out: Biological example 2: intracellular cAMP levels, activity compared to that of isoproterenol
Procedure: as §1
Differentiated cells were serum-starved overnight and stimulated with an agonist, final concentration 1×10^−5 M, for 15 min in stimulation buffer (HBSS supplemented with 1% BSA, 5 mM HEPES and 1 mM IBMX, pH 7.4). The medium was aspirated and 100 μL of 95% EtOH was added to each well of the 24-well plate and cells were kept at −20° C. overnight. The EtOH was allowed to evaporate and 500 μL of lysis buffer (1% BSA, 5 mM HEPES and 0.3% Tween-20, pH 7.4) was added to each well. The plate was kept at −80° C. for 30 min and then at −20° C. until the day of detection when the samples were thawed. Intracellular cAMP levels were detected using an alpha screen cAMP kit (6760635D from Perkin Elmer). The activity for each compound is compared to that of isoproterenol.

SMILES | Biological example 1: glucose uptake, activity compared to that of isoproterenol (L6-myotubes [1]) | Emax at 10 µM (L6-myotubes [2]) [%] | Biological example 2: intracellular cAMP levels, activity compared to that of isoproterenol (L6-myotubes [2]) | Emax at 10 µM (L6-myotubes [1]) [%]
CO[C@@H]1CCC[C@H](C(C)(C)NC[C@H](O)c2cccc(F)c2)C1 (single isomer, unassigned) [Example 119] | + + + | < 25 |  | 
CO[C@H]1CCC[C@@H](C(C)(C)NC[C@H](O)c2cccc(F)c2)C1 (single isomer, unassigned) [Example 120] | + + + | < 25 |  | 
CO[C@@H]1CCC[C@H](C(C)(C)NC[C@H](O)c2cncc(F)c2)C1 (single isomer, unassigned) [Example 121] | + + | < 25 |  | 
CO[C@H]1CCC[C@@H](C(C)(C)NC[C@H](O)c2cncc(F)c2)C1 (single isomer, unassigned) [Example 122] | + + + |  | + + | 
CO[C@H]1CC[C@@H](CNC[C@H](O)c2cccc(F)c2)CC1 [Example 1, (R)-1-(3-Fluorophenyl)-2-((((1s,4S)-4-methoxycyclohexyl)-methyl)amino)ethan-1-ol] | + + | < 25 |  | 
CO[C@H]1CC[C@@H](CNC[C@H](O)c2cncc(F)c2)CC1 [Example 2, (R)-1-(5-Fluoropyridin-3-yl)-2-((((1s,4S)-4-methoxycyclohexyl)-methyl)amino)ethan-1-ol] | + + | < 25 |  | 
CO[C@H]1CC[C@H](CNC[C@H](O)c2cccc(F)c2)CC1 [Example 3, (R)-1-(3-Fluorophenyl)-2-((((1r,4R)-4-methoxycyclohexyl)methyl)amino)-ethan-1-ol] | + + | < 25 |  | 
CO[C@H]1CC[C@H](CNC[C@H](O)c2cncc(F)c2)CC1 [Example 4, (R)-1-(5-Fluoropyridin-3-yl)-2-((((1r,4R)-4-methoxycyclohexyl)-methyl)amino)ethan-1-ol] | + + | < 25 |  | 
CO[C@H]1CC[C@@H](C(C)(C)NC[C@H](O)c2cccc(F)c2)CC1 [Example 5, (R)-1-(3-Fluorophenyl)-2-((2-((1s,4S)-4-methoxycyclohexyl)propan-2-yl)-amino)ethan-1-ol] |  | < 25 |  | < 25
CO[C@H]1CC[C@@H](C(C)(C)NC[C@H](O)c2cncc(F)c2)CC1 [Example 6, (R)-1-(5-fluoropyridin-3-yl)-2-((2-((1s,4S)-4-methoxycyclohexyl)propan-2-yl)amino)ethan-1-ol] |  | < 25 |  | < 25
CO[C@H]1CC[C@H](C(C)(C)NC[C@H](O)c2cccc(F)c2)CC1 [Example 7] | + + + | < 25 |  | 
CO[C@H]1CC[C@H](C(C)(C)NC[C@H](O)c2cncc(F)c2)CC1 [Example 8, (R)-1-(5-Fluoropyridin-3-yl)-2-((2-((1r,4R)-4-methoxycyclohexyl)propan-2-yl)amino)ethan-1-ol] | + + + | < 25 |  | 
CO[C@H]1CC[C@@H](CCNC[C@H](O)c2cccc(F)c2)CC1 [Example 9, (R)-1-(3-Fluorophenyl)-2-((2-((1s,4S)-4-methoxycyclohexyl)ethyl)amino)-ethan-1-ol] | + + | < 25 |  | 
CO[C@H]1CC[C@@H](CCNC[C@H](O)c2cncc(F)c2)CC1 [Example 10, (R)-1-(5-Fluoropyridin-3-yl)-2-((2-((1s,4S)-4-methoxycyclohexyl)ethyl)-amino)ethan-1-ol] | + + + | < 25 |  | 
CO[C@H]1CC[C@H](CCNC[C@H](O)c2cccc(F)c2)CC1 [Example 11, (R)-1-(3-Fluorophenyl)-2-((2-((1r,4R)-4-methoxycyclohexyl)ethyl)amino)-ethan-1-ol] |  | < 25 |  | 25 to 50
CO[C@H]1CC[C@H](CCNC[C@H](O)c2cncc(F)c2)CC1 [Example 12, (R)-1-(5-Fluoropyridin-3-yl)-2-((2-((1r,4R)-4-methoxycyclohexyl)ethyl)-amino)ethan-1-ol] | + + | < 25 |  | 
CO[C@H]1CC[C@@H](CC(C)(C)NC[C@H](O)c2cccc(F)c2)CC1 [Example 13, (R)-1-(3-Fluorophenyl)-2-((1-((1s,4S)-4-methoxycyclohexyl)-2-methyl-propan-2-yl)amino)ethan-1-ol] | + + + | < 25 |  | 
CO[C@H]1CC[C@@H](CC(C)(C)NC[C@H](O)c2cncc(F)c2)CC1 [Example 14, (R)-1-(5-Fluoropyridin-3-yl)-2-((1-((1s,4S)-4-methoxycyclohexyl)-2-methylpropan-2-yl)amino)ethan-1-ol] | + + + | < 25 |  | 
CO[C@H]1CC[C@H](CC(C)(C)NC[C@H](O)c2cccc(F)c2)CC1 [Example 15, (R)-1-(3-Fluorophenyl)-2-((1-((1r,4R)-4-methoxycyclohexyl)-2-methyl-propan-2-yl)amino)ethan-1-ol] | + + + | < 25 |  | 
CO[C@H]1CC[C@H](CC(C)(C)NC[C@H](O)c2cncc(F)c2)CC1 [Example 16, (R)-1-(5-Fluoropyridin-3-yl)-2-((1-((1r,4R)-4-methoxycyclohexyl)-2-methyl-propan-2-yl)amino)ethan-1-ol] | + + | < 25 |  | 
COC1CCC(CCCNC[C@H](O)c2cccc(F)c2)CC1 (stereo partly drawn) [Example 17, (R)-1-(3-Fluorophenyl)-2-((3-((1r,4S)-4-methoxycyclohexyl)propyl)-amino)ethan-1-ol] |  | < 25 |  | 25 to 50
COC1CCC(CCCNC[C@H](O)c2cncc(F)c2)CC1 (stereo partly drawn) [Example 18, (R)-1-(5-Fluoropyridin-3-yl)-2-((3-((1r,4S)-4-methoxycyclohexyl)propyl)-amino)ethan-1-ol] |  | < 25 |  | < 25
CO[C@H]1CC[C@@H](CCCNC[C@H](O)c2cccc(F)c2)CC1 [Example 19, (R)-1-(3-Fluorophenyl)-2-((3-((1s,4R)-4-methoxycyclohexyl)propyl)amino)-ethan-1-ol] | + + + |  | + + | 
CO[C@H]1CC[C@@H](CCCNC[C@H](O)c2cncc(F)c2)CC1 [Example 20, (R)-1-(5-Fluoropyridin-3-yl)-2-((3-((1s,4R)-4-methoxycyclohexyl)propyl)-amino)ethan-1-ol] | + + + | < 25 |  | 
CO[C@H]1CC[C@H](CCC(C)(C)NC[C@H](O)c2cccc(F)c2)CC1.Cl [Example 21, (R)-1-(3-Fluorophenyl)-2-((4-((1r,4S)-4-methoxycyclohexyl)-2-methyl-butan-2-yl)amino)ethan-1-ol hydrochloride] | + + | < 25 |  | 
COC1CCC(CCC(C)(C)NC[C@H](O)c2cncc(F)c2)CC1 (stereo partly drawn) [Example 22, (R)-1-(5-Fluoropyridin-3-yl)-2-((4-((1r,4S)-4-methoxycyclohexyl)-2-methylbutan-2-yl)amino)ethan-1-ol dihydrochloride] |  | < 25 |  | 25 to 50
CO[C@H]1CC[C@@H](CCC(C)(C)NC[C@H](O)c2cccc(F)c2)CC1.Cl [Example 23, (R)-1-(3-Fluorophenyl)-2-((4-((1s,4R)-4-methoxycyclohexyl)-2-methylbutan-2-yl)amino)ethan-1-ol hydrochloride] | + + + | 25 to 50 |  | 
COC(=O)[C@H]1CC[C@@H](C(C)(C)NC[C@H](O)c2cccc(F)c2)CC1 [Example 95, Methyl (1S,4s)-4-(2-(((R)-2-(3-Fluorophenyl)-2-hydroxyethyl)amino)-propan-2-yl)cyclohexane-1-carboxylate] | + + + |  |  | 
COC(=O)[C@H]1CC[C@@H](C(C)(C)NC[C@H](O)c2cncc(F)c2)CC1 [Example 96, Methyl (1S,4s)-4-(2-(((R)-2-(5-Fluoropyridin-3-yl)-2-hydroxyethyl)amino)-propan-2-yl)cyclohexane-1-carboxylate] | + + |  |  | 
